Experimental data taken from patent publication US8247211B2, “Glycopeptide antibiotics” (American Cyanamid Company, priority 2001, dated 2012).

Tests used:
Assay in all cases: In vitro antibacterial evaluation: minimum inhibitory concentration (MIC), broth dilution method
Type in all cases: cell-based
Details in all cases: 18 hours at 35° C.
Enterococcus sp. = tested on: Enterococcus sp.
How it was run: (§1)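 NCCLS M7-A2 broth dilution with Mueller-Hinton II, testing 64-0.06 μg/mL antibiotic against 5×10^5 CFU/mL inocula. Test strains include recent methicillin-, penicillin- or vancomycin-resistant clinical isolates. MIC is the lowest concentration preventing growth.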

Escherichia coli = tested on: Escherichia coli
How it was run: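 Broth dilution per NCCLS M7-A2 in Muller-Hinton II […], inoculum 5×10^5 CFU/mL, antibiotic tested over 64-0.06 μg/mL. MIC is taken as the lowest concentration that inhibits growth. Panel includes recent clinical isolates resistant to methicillin, penicillin and/or vancomycin.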

Staphylococcus sp. = tested on: Staphylococcus sp.
How it was run: as §1

Streptococcus sp. = tested on: Streptococcus sp.
How it was run: as §1

[1] = Enterococcus faecalis (ATCC 29212)
[2] = Enterococcus faecalis (GC 2242)
[3] = Enterococcus faecalis (GC 4552)
[4] = Enterococcus faecalis (GC 4553)
[5] = Enterococcus faecalis (GC 4554)
[6] = Coagulase Negative Staphylococcus (GC 4547)
[7] = Coagulase Negative Staphylococcus (GC 4548)
[8] = Coagulase Negative Staphylococcus (GC 4549)
[9] = Coagulase Negative Staphylococcus (GC 4551)
[10] = Staphylococcus aureus (ATCC 29213)
[11] = Staphylococcus aureus (GC 1131)
[12] = Staphylococcus aureus (GC 4541)
[13] = Staphylococcus aureus (GC 4542)
[14] = Staphylococcus aureus (GC 4544)
[15] = Staphylococcus aureus (GC 4545)
[16] = Staphylococcus aureus-SMITH (GC 4543)
[17] = Staphylococcus haemolyticus (GC 4546)
[18] = Streptococcus agalactiae (GC 4564)
[19] = Streptococcus pneumoniae (GC 4565)

Tri-N-[(phenylmethoxy)carbonyl]-cyclo[glycyl-β-methylphenylalanyltyrosyl-3-(2-iminoimidazolidin-4-yl)seryl-3-β-(2,3:4,6-di-O-isopropylidenehexopyranosyl)-2-iminoimidazolidin-4-yl]seryl-O-(tert-butyldimethylsilyl)seryl] [Example 249]
MIC Enterococcus avium (GC 4558) (Enterococcus sp.; Enterococcus avium (GC 4558)): 32 µg/mL
MIC Enterococcus faecalis (ATCC 29212) (Enterococcus sp.; [1]): 16 µg/mL
MIC Enterococcus faecalis (GC 2242) (Enterococcus sp.; [2]): 32 µg/mL
MIC Enterococcus faecalis (GC 2691) (Enterococcus sp.; Enterococcus faecalis (GC 2691)): 128 µg/mL
MIC Enterococcus faecalis (GC 3059) (Enterococcus sp.; Enterococcus faecalis (GC 3059)): 128 µg/mL
MIC Enterococcus faecalis (GC 4552) (Enterococcus sp.; [3]): 64 µg/mL
MIC Enterococcus faecalis (GC 4553) (Enterococcus sp.; [4]): 64 µg/mL
MIC Enterococcus faecalis (GC 4554) (Enterococcus sp.; [5]): 128 µg/mL
MIC Enterococcus faecalis (GC 6189) (Enterococcus sp.; Enterococcus faecalis (GC 6189)): 64 µg/mL
MIC Enterococcus faecium (GC 2243) (Enterococcus sp.; Enterococcus faecium (GC 2243)): 64 µg/mL
MIC Enterococcus faecium (GC 4556) (Enterococcus sp.; Enterococcus faecium (GC 4556)): 32 µg/mL
MIC Enterococcus faecium (GC 4557) (Enterococcus sp.; Enterococcus faecium (GC 4557)): 64 µg/mL
MIC Enterococcus faecalis (ATCC 29212) (Enterococcus sp.; broth dilution, strain ATCC 29212): 16 µg/mL
MIC Enterococcus faecalis (GC 2242) (Enterococcus sp.; broth dilution, strain GC 2242): 32 µg/mL
MIC Enterococcus faecium (GC 2243) (Enterococcus sp.; broth dilution, strain GC 2243): 64 µg/mL
MIC Enterococcus faecalis (GC 2691) (Enterococcus sp.; broth dilution, strain GC 2691): 128 µg/mL
MIC Enterococcus faecalis (GC 3059) (Enterococcus sp.; broth dilution, strain GC 3059): 128 µg/mL
MIC Enterococcus faecalis (GC 4552) (Enterococcus sp.; broth dilution, strain GC 4552): 64 µg/mL
MIC Enterococcus faecalis (GC 4553) (Enterococcus sp.; broth dilution, strain GC 4553): 64 µg/mL
MIC Enterococcus faecalis (GC 4554) (Enterococcus sp.; broth dilution, strain GC 4554): 128 µg/mL
MIC Enterococcus faecium (GC 4556) (Enterococcus sp.; broth dilution, strain GC 4556): 32 µg/mL
MIC Enterococcus faecium (GC 4557) (Enterococcus sp.; broth dilution, strain GC 4557): 64 µg/mL
MIC Enterococcus avium (GC 4558) (Enterococcus sp.; broth dilution, strain GC 4558): 32 µg/mL
MIC Enterococcus faecalis (GC 6189) (Enterococcus sp.; broth dilution, strain GC 6189): 64 µg/mL
MIC Escherichia coli (ATCC 25922) (Escherichia coli): 128 µg/mL
MIC Escherichia coli (GC 4559) (Escherichia coli; Escherichia coli (GC 4559)): 128 µg/mL
MIC Escherichia coli (GC 4560) (Escherichia coli; Escherichia coli (GC 4560)): 128 µg/mL
MIC Coagulase Negative Staphylococcus (GC 4547) (Staphylococcus sp.; [6]): 64 µg/mL
MIC Coagulase Negative Staphylococcus (GC 4548) (Staphylococcus sp.; [7]): 128 µg/mL
MIC Coagulase Negative Staphylococcus (GC 4549) (Staphylococcus sp.; [8]): 128 µg/mL
MIC Coagulase Negative Staphylococcus (GC 4551) (Staphylococcus sp.; [9]): 64 µg/mL
MIC Coagulase Negative Staphylococcus (GC 6257) (Staphylococcus sp.; Coagulase Negative Staphylococcus (GC 6257)): 128 µg/mL
MIC Staphylococcus aureus (ATCC 29213) (Staphylococcus sp.; [10]): 128 µg/mL
MIC Staphylococcus aureus (GC 1131) (Staphylococcus sp.; [11]): 128 µg/mL
MIC Staphylococcus aureus (GC 3051) (Staphylococcus sp.; Staphylococcus aureus (GC 3051)): 128 µg/mL
MIC Staphylococcus aureus (GC 3053) (Staphylococcus sp.; Staphylococcus aureus (GC 3053)): 128 µg/mL
MIC Staphylococcus aureus (GC 4541) (Staphylococcus sp.; [12]): 128 µg/mL
MIC Staphylococcus aureus (GC 4542) (Staphylococcus sp.; [13]): 64 µg/mL
MIC Staphylococcus aureus (GC 4544) (Staphylococcus sp.; [14]): 64 µg/mL
MIC Staphylococcus aureus (GC 4545) (Staphylococcus sp.; [15]): 128 µg/mL
MIC Staphylococcus aureus-SMITH (GC 4543) (Staphylococcus sp.; [16]): 128 µg/mL
MIC Staphylococcus haemolyticus (GC 4546) (Staphylococcus sp.; [17]): 128 µg/mL
MIC Staphylococcus aureus (ATCC 29213) (Staphylococcus sp.; broth dilution, strain ATCC 29213): 128 µg/mL
MIC Staphylococcus aureus (GC 1131) (Staphylococcus sp.; broth dilution, strain GC 1131): 128 µg/mL
MIC Staphylococcus aureus (GC 3051) (Staphylococcus sp.; broth dilution, strain GC 3051): 128 µg/mL
MIC Staphylococcus aureus (GC 3053) (Staphylococcus sp.; broth dilution, strain GC 3053): 128 µg/mL
MIC Staphylococcus aureus (GC 4541) (Staphylococcus sp.; broth dilution, strain GC 4541): 128 µg/mL
MIC Staphylococcus aureus (GC 4542) (Staphylococcus sp.; broth dilution, strain GC 4542): 64 µg/mL
MIC Staphylococcus aureus-SMITH (GC 4543) (Staphylococcus sp.; broth dilution, strain GC 4543): 128 µg/mL
MIC Staphylococcus aureus (GC 4544) (Staphylococcus sp.; broth dilution, strain GC 4544): 64 µg/mL
MIC Staphylococcus aureus (GC 4545) (Staphylococcus sp.; broth dilution, strain GC 4545): 128 µg/mL
MIC Staphylococcus haemolyticus (GC 4546) (Staphylococcus sp.; broth dilution, strain GC 4546): 128 µg/mL
MIC Coagulase Negative Staphylococcus (GC 4547) (Staphylococcus sp.; broth dilution, strain GC 4547): 64 µg/mL
MIC Coagulase Negative Staphylococcus (GC 4548) (Staphylococcus sp.; broth dilution, strain GC 4548): 128 µg/mL
MIC Coagulase Negative Staphylococcus (GC 4549) (Staphylococcus sp.; broth dilution, strain GC 4549): 128 µg/mL
MIC Coagulase Negative Staphylococcus (GC 4551) (Staphylococcus sp.; broth dilution, strain GC 4551): 64 µg/mL
MIC Coagulase Negative Staphylococcus (GC 6257) (Staphylococcus sp.; broth dilution, strain GC 6257): 128 µg/mL
MIC Streptococcus agalactiae (GC 4564) (Streptococcus sp.; [18]): 128 µg/mL
MIC Streptococcus pneumoniae (ATCC 6301) (Streptococcus sp.; Streptococcus pneumoniae (ATCC 6301)): 64 µg/mL
MIC Streptococcus pneumoniae (GC 1894) (Streptococcus sp.; Streptococcus pneumoniae (GC 1894)): 32 µg/mL
MIC Streptococcus pneumoniae (GC 4565) (Streptococcus sp.; [19]): 64 µg/mL
MIC Streptococcus pyogenes (GC 4563) (Streptococcus sp.; Streptococcus pyogenes (GC 4563)): 128 µg/mL
MIC Streptococcus pneumoniae (ATCC 6301) (Streptococcus sp.; broth dilution, strain ATCC 6301): 64 µg/mL
MIC Streptococcus pneumoniae (GC 1894) (Streptococcus sp.; broth dilution, strain GC 1894): 32 µg/mL
MIC Streptococcus pyogenes (GC 4563) (Streptococcus sp.; broth dilution, strain GC 4563): 128 µg/mL
MIC Streptococcus agalactiae (GC 4564) (Streptococcus sp.; broth dilution, strain GC 4564): 128 µg/mL
MIC Streptococcus pneumoniae (GC 4565) (Streptococcus sp.; broth dilution, strain GC 4565): 64 µg/mL

α-O-[(Butylamino)carbonyl]-cyclo[glycyl-β-methylphenylalanyl-O-(4-O-hexopyranosylhexopyranosyl)tyrosyl-3-(2-iminoimidazolidin-4-yl)seryl-3-(3-hexopyranosyl-2-iminoimidazolidin-4-yl)serylseryl] [Example 252]
MIC Enterococcus avium (GC 4558) (Enterococcus sp.; Enterococcus avium (GC 4558)): >64 µg/mL
MIC Enterococcus faecalis (ATCC 29212) (Enterococcus sp.; [1]): >64 µg/mL
MIC Enterococcus faecalis (GC 2242) (Enterococcus sp.; [2]): >64 µg/mL
MIC Enterococcus faecalis (GC 4552) (Enterococcus sp.; [3]): >64 µg/mL
MIC Enterococcus faecalis (GC 4553) (Enterococcus sp.; [4]): >64 µg/mL
MIC Enterococcus faecalis (GC 4554) (Enterococcus sp.; [5]): >64 µg/mL
MIC Enterococcus faecium (GC 2243) (Enterococcus sp.; Enterococcus faecium (GC 2243)): >64 µg/mL
MIC Enterococcus faecium (GC 4556) (Enterococcus sp.; Enterococcus faecium (GC 4556)): >64 µg/mL
MIC Enterococcus faecium (GC 4557) (Enterococcus sp.; Enterococcus faecium (GC 4557)): >64 µg/mL
MIC Escherichia coli (ATCC 25922) (Escherichia coli): >64 µg/mL
MIC Coagulase Negative Staphylococcus (GC 4547) (Staphylococcus sp.; [6]): >64 µg/mL
MIC Coagulase Negative Staphylococcus (GC 4548) (Staphylococcus sp.; [7]): >64 µg/mL
MIC Coagulase Negative Staphylococcus (GC 4549) (Staphylococcus sp.; [8]): >64 µg/mL
MIC Coagulase Negative Staphylococcus (GC 4551) (Staphylococcus sp.; [9]): >64 µg/mL
MIC Coagulase Negative Staphylococcus (ID-3941) (Staphylococcus sp.; Coagulase Negative Staphylococcus (ID-3941)): >64 µg/mL
MIC Staphylococcus aureus (ATCC 29213) (Staphylococcus sp.; [10]): >64 µg/mL
MIC Staphylococcus aureus (GC 1131) (Staphylococcus sp.; [11]): >64 µg/mL
MIC Staphylococcus aureus (GC 4541) (Staphylococcus sp.; [12]): >64 µg/mL
MIC Staphylococcus aureus (GC 4542) (Staphylococcus sp.; [13]): >64 µg/mL
MIC Staphylococcus aureus (GC 4544) (Staphylococcus sp.; [14]): >64 µg/mL
MIC Staphylococcus aureus (GC 4545) (Staphylococcus sp.; [15]): >64 µg/mL
MIC Staphylococcus aureus-SMITH (GC 4543) (Staphylococcus sp.; [16]): >64 µg/mL
MIC Staphylococcus haemolyticus (GC 4546) (Staphylococcus sp.; [17]): >64 µg/mL
MIC Streptococcus agalactiae (GC 4564) (Streptococcus sp.; [18]): >64 µg/mL
MIC Streptococcus pneumoniae (GC 4565) (Streptococcus sp.; [19]): >64 µg/mL
MIC Streptococcus pyogenes (ID-3187) (Streptococcus sp.; Streptococcus pyogenes (ID-3187)): >64 µg/mL
